Measured values taken from ChEMBL document CHEMBL1201862, “PubChem BioAssay data set” (2004).
Counter-ions that a name gives are not always drawn. Activity calls are given as the source filed them.

Legend:
[1] = Luminescence Cell-Based Dose Response HTS to Identify Inhibitors of 5'UTR Stem-Loop Driven Prion Protein mRNA Translation in H4 Neuroglioblastoma Cells. [Related pubchem assays: 1827 (Project Summary), 1813 (Primary HTS)]; type: functional
[2] = alpha-synuclein stem-loop luciferase translation blockers – H4 neuroglioma cells, luminescence, confirmation (AID 1988); type: functional, cell-based
[3] = luciferase reporter signal suppression in cells – H4 neuroglioma cells, luminescence, dose response (AID 1990); type: functional, cell-based
Cytochrome P450 3A4 [4] = molecular target: T1, Cytochrome P450 3A4 (Homo sapiens, UniProt P08684); conditions: Potency
T1 sequence (P08684 whole entry): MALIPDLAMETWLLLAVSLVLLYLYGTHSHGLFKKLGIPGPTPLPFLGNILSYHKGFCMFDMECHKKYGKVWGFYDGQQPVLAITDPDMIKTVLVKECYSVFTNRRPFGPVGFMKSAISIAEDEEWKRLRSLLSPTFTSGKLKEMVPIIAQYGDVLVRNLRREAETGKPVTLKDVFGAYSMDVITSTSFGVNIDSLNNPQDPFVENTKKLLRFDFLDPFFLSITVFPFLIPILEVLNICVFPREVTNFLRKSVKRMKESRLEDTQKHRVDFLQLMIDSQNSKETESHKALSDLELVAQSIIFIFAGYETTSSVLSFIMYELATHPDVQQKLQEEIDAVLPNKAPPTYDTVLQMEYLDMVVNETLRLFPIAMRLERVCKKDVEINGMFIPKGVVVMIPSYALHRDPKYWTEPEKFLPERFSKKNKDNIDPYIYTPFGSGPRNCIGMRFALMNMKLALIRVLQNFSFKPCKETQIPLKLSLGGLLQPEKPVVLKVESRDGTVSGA

[5] = Luminescence Cell-Based Dose Retest to Confirm Inhibitors of Cancer Stem Cells. [Related pubchem assays (depositor defined):AID2717, AID2721]; type: functional; conditions: Homo sapiens
Cytochrome P450 3A4 [6] = molecular target: T1, Cytochrome P450 3A4
Fatty acid synthase [7] = molecular target: T2, Fatty acid synthase (Homo sapiens, UniProt P49327); test: inhibition of human FAS-TE enzyme activity – biochemical, kinetic fluorescence intensity, dose response (AID 624326); type: functional;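 note: rate of fluorescence rise from hydrolysis of a fluorogenic O-methyl fluorescein ester substrate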
T2 sequence (P49327 whole entry): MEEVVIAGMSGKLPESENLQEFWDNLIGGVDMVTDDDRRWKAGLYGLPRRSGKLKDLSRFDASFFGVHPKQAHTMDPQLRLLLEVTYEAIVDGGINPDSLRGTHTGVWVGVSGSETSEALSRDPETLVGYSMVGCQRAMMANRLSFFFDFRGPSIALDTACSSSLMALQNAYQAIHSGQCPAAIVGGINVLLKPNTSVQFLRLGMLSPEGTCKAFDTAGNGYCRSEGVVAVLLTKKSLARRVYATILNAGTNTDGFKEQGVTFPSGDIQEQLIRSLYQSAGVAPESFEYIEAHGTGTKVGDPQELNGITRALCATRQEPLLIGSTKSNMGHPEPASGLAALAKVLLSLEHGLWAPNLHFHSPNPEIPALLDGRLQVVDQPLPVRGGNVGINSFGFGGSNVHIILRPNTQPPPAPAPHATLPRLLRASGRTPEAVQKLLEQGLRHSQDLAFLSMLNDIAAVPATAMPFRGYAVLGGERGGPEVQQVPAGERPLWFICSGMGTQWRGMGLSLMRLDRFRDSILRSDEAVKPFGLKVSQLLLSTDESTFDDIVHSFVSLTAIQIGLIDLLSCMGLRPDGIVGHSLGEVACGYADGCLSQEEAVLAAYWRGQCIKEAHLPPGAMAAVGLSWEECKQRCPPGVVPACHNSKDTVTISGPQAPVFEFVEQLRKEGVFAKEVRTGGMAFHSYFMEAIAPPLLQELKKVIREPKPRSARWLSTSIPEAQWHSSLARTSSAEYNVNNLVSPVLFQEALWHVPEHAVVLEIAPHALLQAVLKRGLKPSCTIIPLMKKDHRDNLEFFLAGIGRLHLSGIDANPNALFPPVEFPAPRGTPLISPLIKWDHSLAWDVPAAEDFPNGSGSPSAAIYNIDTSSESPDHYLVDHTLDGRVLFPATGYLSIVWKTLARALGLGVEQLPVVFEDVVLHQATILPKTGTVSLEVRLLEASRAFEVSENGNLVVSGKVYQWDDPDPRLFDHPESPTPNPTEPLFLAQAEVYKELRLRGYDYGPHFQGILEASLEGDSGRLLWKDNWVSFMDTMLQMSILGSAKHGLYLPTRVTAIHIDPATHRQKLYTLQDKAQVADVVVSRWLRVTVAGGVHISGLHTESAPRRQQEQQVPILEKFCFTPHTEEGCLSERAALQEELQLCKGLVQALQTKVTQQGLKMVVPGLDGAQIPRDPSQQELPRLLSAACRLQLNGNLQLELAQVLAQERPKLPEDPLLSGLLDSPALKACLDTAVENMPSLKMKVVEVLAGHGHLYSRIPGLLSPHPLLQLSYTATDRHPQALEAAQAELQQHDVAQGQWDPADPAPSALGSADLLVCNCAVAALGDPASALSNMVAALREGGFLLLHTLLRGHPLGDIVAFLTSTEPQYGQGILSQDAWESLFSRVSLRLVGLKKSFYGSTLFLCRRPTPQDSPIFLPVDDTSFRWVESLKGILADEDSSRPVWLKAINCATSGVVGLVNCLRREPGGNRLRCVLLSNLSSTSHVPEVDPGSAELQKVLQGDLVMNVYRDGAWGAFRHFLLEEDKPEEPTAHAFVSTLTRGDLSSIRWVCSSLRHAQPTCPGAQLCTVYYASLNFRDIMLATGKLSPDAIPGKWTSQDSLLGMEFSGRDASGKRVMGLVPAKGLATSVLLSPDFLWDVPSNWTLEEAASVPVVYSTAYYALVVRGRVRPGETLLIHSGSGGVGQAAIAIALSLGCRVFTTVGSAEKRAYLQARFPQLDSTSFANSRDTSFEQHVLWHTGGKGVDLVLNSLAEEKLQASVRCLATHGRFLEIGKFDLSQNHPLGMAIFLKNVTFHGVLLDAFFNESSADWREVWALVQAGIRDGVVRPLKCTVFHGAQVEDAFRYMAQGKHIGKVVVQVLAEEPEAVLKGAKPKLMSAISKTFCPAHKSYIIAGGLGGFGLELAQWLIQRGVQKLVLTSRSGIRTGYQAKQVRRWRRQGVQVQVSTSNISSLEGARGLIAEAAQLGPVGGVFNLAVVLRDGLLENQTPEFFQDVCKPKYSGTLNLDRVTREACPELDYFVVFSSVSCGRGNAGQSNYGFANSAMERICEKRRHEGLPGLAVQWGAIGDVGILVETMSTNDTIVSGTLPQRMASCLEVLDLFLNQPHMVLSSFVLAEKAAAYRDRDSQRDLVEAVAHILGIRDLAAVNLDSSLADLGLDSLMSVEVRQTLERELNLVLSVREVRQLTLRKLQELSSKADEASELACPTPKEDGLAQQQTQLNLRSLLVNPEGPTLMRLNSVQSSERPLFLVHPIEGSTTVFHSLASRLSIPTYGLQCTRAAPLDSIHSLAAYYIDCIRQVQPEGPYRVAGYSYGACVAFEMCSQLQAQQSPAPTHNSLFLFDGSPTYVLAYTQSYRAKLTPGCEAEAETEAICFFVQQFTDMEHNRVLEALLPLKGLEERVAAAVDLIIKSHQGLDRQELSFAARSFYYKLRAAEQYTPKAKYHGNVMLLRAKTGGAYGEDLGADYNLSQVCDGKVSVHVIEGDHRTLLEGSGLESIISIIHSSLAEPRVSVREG

Fatty acid synthase [8] = molecular target: T2, Fatty acid synthase; test: inhibition of human FAS-TE enzyme activity – biochemical, endpoint fluorescence intensity, uHTS hits, dose response (AID 624327); type: functional;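 note: fluorescence from hydrolysis of an O-methyl fluorescein acyl ester substrate by the enzyme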
SN12K1 = test: cells; type: functional; conditions: Homo sapiens
P388 = test: cells; type: functional; conditions: Mus musculus
P388/ADR = test: cells; type: functional; conditions: Mus musculus

SMILES	GI50 (SN12K1)	GI50 (P388)	GI50 (P388/ADR)	other results
COc1ccc(Oc2c(C)oc3cc(OC(=O)N4CCOCC4)ccc3c2=O)cc1				EC50 [1]: > 120 µM (not active); EC50 [2]: 59.2 µM (active); EC50 [3]: > 120 µM (not active)
Oc1cc(Cl)ccc1Cl				AC50 (Cytochrome P450 3A4 [4]): 31.6 µM (inconclusive)
COC(=O)C(C(=O)OC)C1O[C@@]23COCCC2(C)C3c2ccccc21 (stereo partly drawn)				AC50 (Cytochrome P450 3A4 [4]): 3.16 µM (inconclusive)
CCCCCCn1c(SCC(C)C)nc2c1c(=O)[nH]c(=O)n2C				EC50 [1]: > 120 µM (not active); EC50 [2]: 18.8 µM (active); EC50 [3]: 15.4 µM (active)
CCOC(=O)CSC1=C(C#N)C(c2sccc2C)CC(=O)N1 (stereo not drawn)				AC50 [5]: 0.722 µM (active); AC50 (Cytochrome P450 3A4 [6]): 15.8 µM (inconclusive)
CCc1cccc(NC(=O)COC(=O)c2cc([N+](=O)[O-])ccc2N2CCOCC2)c1				IC50 (Fatty acid synthase [7]): 0.393 µM (active); IC50 (Fatty acid synthase [8]): 0.29 µM (active)
COc1cc(-c2ccc3oc(-c4cccc(C)c4)c(C#CC4(O)CCCCC4)c3c2)cc(OC)c1OC				AC50 [5]: 8.67 µM (active)
CN(C)C(=O)N(CCCl)N=O	> 100 µM (inactive)	> 100 µM (inactive)	> 100 µM (inactive)	
CCCCc1nccc2c(C)c3[nH]c4ccccc4c3cc12	2.14 µM (inactive)	1.77 µM (inactive)	2 µM (inactive)	
CN(C)CC1CC/C(=C\c2ccc(Cl)cc2)C1=O (stereo not drawn)	2.21 µM (inactive)	0.31 µM (active)	0.509 µM (active)	
Cc1ccc(S(=O)(=O)Oc2cc(-c3ccccc3)nc3ccccc23)cc1	1.61 µM (inactive)	1.15 µM (inactive)	1.91 µM (inactive)	
O=S1(=O)C(=C(c2ccccc2)c2ccccc2)S(=O)(=O)c2ccccc21	28.2 µM (inactive)	> 31.6 µM (inactive)	> 100 µM (inactive)	
CCCCCCCCCCCC[S+](C)C	5.33 µM (inactive)	0.236 µM (active)	27.8 µM (inactive)	
COc1ccc2c(c1)CCc1c(CO)c(COC(=O)NC(C)C)n(C)c1-2	3.32 µM (inactive)	1.17 µM (inactive)	2.2 µM (inactive)	
O=c1[nH]c(=O)n([C@H]2CCCO2)cc1F	369 µM (inactive)	24.3 µM (inactive)	37.7 µM (inactive)	
Cc1c2ccccc2c(C)c2c1ccc1ccccc12				AC50 (Cytochrome P450 3A4 [4]): 12.6 µM (inconclusive)
O=C(/C=C/c1ccccc1)c1ccc(O)cc1 [4'-HYDROXYCHALCONE]				AC50 (Cytochrome P450 3A4 [4]): 39.8 µM (inconclusive)
O=C1C=CC(=O)c2c(O)cccc21 [JUGLONE]				AC50 (Cytochrome P450 3A4 [4]): 39.8 µM (inconclusive)
CNNCc1ccc(C(=O)NC(C)C)cc1 [PROCARBAZINE HYDROCHLORIDE]	> 456 µM (inactive)	> 500 µM (inactive)	> 485 µM (inactive)	
